According to patent US9409884B2 (Rigel Pharmaceuticals, Inc., priority 2012, dated 2016):

Target: AMPK
Assay: AMPK activation, enzyme-linked immunosorbent assay
Assay type: biochemical
Summary of the method: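 Read-out: ELISA, used to detect compound-driven activation of AMPK.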

Row | SMILES | EC50 (Table 11, compounds of Table 4) | EC50 (Table 12, compounds of Table 5)
1 | O=C(NC1CCN(Cc2ccc(Cl)cc2)C1)c1ccc(C(=O)N2CCN(c3ccc(Cl)cc3)CC2)cn1 (stereo not shown) [Compound 4-7, N-(1-(4-chlorobenzyl)pyrrolidin-3-yl)-5-(4-(4-chlorophenyl)piperazine-1-carbonyl)picolinamide] | 1000 to 5000 nM | –
2 | O=C(NC1CCN(Cc2ccc(C(F)(F)F)cc2)C1)c1ccc(C(=O)N2CCN(c3ccc(Cl)cc3)CC2)cn1 (stereo not shown) [Compound 4-8, 5-(4-(4-chlorophenyl)piperazine-1-carbonyl)-N-(1-(4-(trifluoromethyl)benzyl)pyrrolidin-3-yl)picolinamide] | 1000 to 5000 nM | –
3 | N#Cc1ccc(CN2CCC(NC(=O)c3ccc(C(=O)N4CCN(c5ccc(S(=O)(=O)N6CCCC6)cc5)CC4)nc3)CC2)cc1 [Compound 4-9, N-(1-(4-cyanobenzyl)piperidin-4-yl)-6-(4-(4-(pyrrolidin-1-ylsulfonyl)phenyl)piperazine-1-carbonyl)nicotinamide] | 500 to 1000 nM | –
4 | CC(C)S(=O)(=O)c1ccc(N2CCN(C(=O)c3ccc(C(=O)NC4CCN(Cc5ccc(OC(F)(F)F)cc5)C[C@H]4F)cn3)CC2)cc1 (stereo partly drawn) [Compound 4-11, N-((3,4-trans)-3-fluoro-1-(4-(trifluoromethoxy)benzyl)piperidin-4-yl)-6-(4-(4-(isopropylsulfonyl)phenyl)piperazine-1-carbonyl)nicotinamide] | < 500 nM | –
5 | N#Cc1ccc(CN2CCC(NC(=O)c3ccc(C(=O)N4CCN(c5ccc(C(=O)C6CC6)cc5)CC4)nc3)[C@H](F)C2)cc1 (stereo partly drawn) [Compound 4-12, N-((3,4-trans)-1-(4-cyanobenzyl)-3-fluoropiperidin-4-yl)-6-(4-(4-(cyclopropanecarbonyl)phenyl)piperazine-1-carbonyl)nicotinamide] | < 500 nM | –
6 | CS(=O)(=O)c1ccc(CN2CCN(C(=O)c3ccc(C(=O)NC4CCN(Cc5ccc(C#N)cc5)CC4F)cn3)CC2)cc1 (stereo not drawn) [Compound 4-13, N-((3,4-trans)-1-(4-cyanobenzyl)-3-fluoropiperidin-4-yl)-6-(4-(4-(methylsulfonyl)benzyl)piperazine-1-carbonyl)nicotinamide] | 1000 to 5000 nM | –
7 | O=C(NC1CCN(Cc2ccc(OC(F)(F)F)cc2)C[C@H]1F)c1ccc(C(=O)N2CCN(c3ccc(S(=O)(=O)N4CCCC4)cc3)CC2)nc1 (stereo partly drawn) [Compound 4-14, N-((3,4-trans)-3-fluoro-1-(4-(trifluoromethoxy)benzyl)piperidin-4-yl)-6-(4-(4-(pyrrolidin-1-ylsulfonyl)phenyl)piperazine-1-carbonyl)nicotinamide] | < 500 nM | –
8 | O=C(NC1CCN(Cc2ccc(OC(F)(F)F)cc2)C[C@H]1F)c1ccc(C(=O)N2CCN(Cc3ccc(S(=O)(=O)N4CCCC4)cc3)CC2)nc1 (stereo partly drawn) [Compound 4-15, N-((3,4-trans)-3-fluoro-1-(4-(trifluoromethoxy)benzyl)piperidin-4-yl)-6-(4-(4-(pyrrolidin-1-ylsulfonyl)benzyl)piperazine-1-carbonyl)nicotinamide] | < 500 nM | –
9 | N#Cc1ccc(CN2CCC(NC(=O)c3ccc(C(=O)N4CCN(Cc5ccc(S(=O)(=O)N6CCCC6)cc5)CC4)nc3)CC2)cc1 [Compound 4-16, N-(1-(4-cyanobenzyl)piperidin-4-yl)-6-(4-(4-(pyrrolidin-1-ylsulfonyl)benzyl)piperazine-1-carbonyl)nicotinamide] | < 500 nM | –
10 | CCNS(=O)(=O)c1ccc(CN2CCN(C(=O)c3ccc(C(=O)NC4CCN(Cc5ccc(C#N)cc5)CC4)cn3)CC2)cc1 [Compound 4-17, N-(1-(4-cyanobenzyl)piperidin-4-yl)-6-(4-(4-(N-ethylsulfamoyl)benzyl)piperazine-1-carbonyl)nicotinamide] | 1000 to 5000 nM | –
11 | COc1ccc(CN2CCC(Oc3ccc(C(=O)NC4CCN(Cc5ccccc5)CC4)cc3Cl)CC2)cc1 [Compound 5-1, N-(1-benzylpiperidin-4-yl)-3-chloro-4-(1-(4-methoxybenzyl)piperidin-4-yloxy)benzamide] | – | < 1000 nM
12 | COc1cc(C(=O)NC2CCN(Cc3ccccc3)CC2)ccc1OC1CCN(Cc2ccccc2)CC1 [Compound 5-2, N-(1-benzylpiperidin-4-yl)-4-(1-benzylpiperidin-4-yloxy)-3-methoxybenzamide] | – | < 1000 nM
13 | Cn1cncc1CN1CCC(Oc2ccc(C(=O)NC3CCN(Cc4ccccc4)CC3)cc2)CC1 [Compound 5-4, N-(1-benzylpiperidin-4-yl)-4-(1-((1-methyl-1H-imidazol-5-yl)methyl)piperidin-4-yloxy)benzamide] | – | > 100000 nM
14 | Cn1cncc1CN1CCC(Oc2ccc(C(=O)NC3CCN(Cc4ccccc4)CC3)cc2Cl)CC1 [Compound 5-5, N-(1-benzylpiperidin-4-yl)-3-chloro-4-(1-((1-methyl-1H-imidazol-5-yl)methyl)piperidin-4-yloxy)benzamide] | – | 50000 to 100000 nM
15 | O=C(NC1CCN(Cc2ccccc2)CC1)c1ccc(OC2CCN(Cc3ccncc3)CC2)c(Cl)c1 [Compound 5-6, N-(1-benzylpiperidin-4-yl)-3-chloro-4-(1-(pyridin-4-ylmethyl)piperidin-4-yloxy)benzamide] | – | < 1000 nM
16 | COc1cc(C(=O)NC2CCN(Cc3ccccc3)CC2)ccc1OC1CCN(CCCc2ccccc2)CC1 [Compound 5-7, N-(1-benzylpiperidin-4-yl)-3-methoxy-4-(1-(3-phenylpropyl)piperidin-4-yloxy)benzamide] | – | < 1000 nM
17 | COc1cc(C(=O)NC2CCN(Cc3ccccc3)CC2)ccc1OC1CCN(c2cccs2)CC1 [Compound 5-8, N-(1-benzylpiperidin-4-yl)-3-methoxy-4-(1-(thiophen-2-yl)piperidin-4-yloxy)benzamide] | – | 1000 to 10000 nM
18 | COc1cc(C(=O)NC2CCN(Cc3ccccc3)CC2)ccc1OC1CCN(S(C)(=O)=O)CC1 [Compound 5-9, N-(1-benzylpiperidin-4-yl)-3-methoxy-4-(1-(methylsulfonyl)piperidin-4-yloxy)benzamide] | – | 20000 to 50000 nM
19 | O=C(NC1CCN(Cc2ccccc2)CC1)c1ccc(OC2CCN(c3cccs3)CC2)c(Cl)c1 [Compound 5-10, N-(1-benzylpiperidin-4-yl)-3-chloro-4-(1-(thiophen-2-yl)piperidin-4-yloxy)benzamide] | – | 1000 to 10000 nM
20 | O=C(NC1CCN(Cc2ccccc2)CC1)c1ccc(OC2CCN(c3ccco3)CC2)c(Cl)c1 [Compound 5-11, N-(1-benzylpiperidin-4-yl)-3-chloro-4-(1-(furan-2-yl)piperidin-4-yloxy)benzamide] | – | 1000 to 10000 nM
21 | COc1cc(C(=O)NC2CCN(Cc3ccccc3)CC2)ccc1OC1CCN(c2ccco2)CC1 [Compound 5-12, N-(1-benzylpiperidin-4-yl)-3-methoxy-4-(1-(furan-2-yl)piperidin-4-yloxy)benzamide] | – | 1000 to 10000 nM
22 | O=C(NC1CCN(Cc2ccccc2)CC1)c1cccc(OC2CCN(Cc3ccccc3)CC2)c1 [Compound 5-13, N-(1-benzylpiperidin-4-yl)-3-(1-benzylpiperidin-4-yloxy)benzamide] | – | 20000 to 50000 nM
23 | O=C(NC1CCN(Cc2ccccc2)CC1)c1ccc(OC2CCN(Cc3ccccc3)CC2)c(Cl)c1 [Compound 5-14, N-(1-benzylpiperidin-4-yl)-4-(1-benzylpiperidin-4-yloxy)-3-chlorobenzamide] | – | < 1000 nM
24 | O=C(NC1CCN(Cc2ccccc2)CC1)c1ccc(OC2CCN(Cc3ccc4c(c3)OCCO4)CC2)c(Cl)c1 [Compound 5-15] | – | < 1000 nM
25 | CC(C)(C)c1ccc(CN2CCC(Oc3ccc(C(=O)NC4CCN(Cc5ccccc5)CC4)cc3Cl)CC2)cc1 [Compound 5-16, N-(1-benzylpiperidin-4-yl)-4-(1-(4-tert-butylbenzyl)piperidin-4-yloxy)-3-chlorobenzamide] | – | < 1000 nM
